Where two headings read alike, the source gives them in different places.
How the values were obtained:
ARPE-19 cells [1] = test: Inhibition of apoptosis induced by oxidative stress (TNF-α/H2O2) in RPE cells, Hoechst staining; format: cell-based, human; settings: TNF-α 10 ng/ml + H2O2 600 uM, 14 h, FIG. 1
Experimental: (§1) ARPE-19 cells (L. M. Hjelmeland, ATCC #CRL-2302) were grown and maintained in DMEM-F12 medium supplemented with 10% FBS and incubated at 37° C. with a constant supply of 5% CO2. ARPE-19 cells are spontaneously transformed human retinal pigment epithelial cells that conserve cellular biological and functional properties. All chemicals were purchased from Sigma Chemical Co. (St. Louis, Mo.) unless otherwise indicated.
ARPE-19 cells growing in DMEM-F-12 medium for 72 h were serum starved for 8 h before induction of oxidative stress, as described in P. K. Mukherjee et al., “Photoreceptor outer segment phagocytosis attenuates oxidative stress-induced apoptosis with concomitant neuroportectin D1 synthesis,” PNAS, vol. 104, pp. 13158-13163 (2007). Oxidative stress was introduced by TNF-α (10 ng/ml) and H2O2 (600 uM) for 14 h and challenged with different concentrations of either lipoxin-A4 or lipoxin A4 epimer 15 (10 nM, 50 nM, and 100 nM; Calbiochem, Madison, Wis.), as indicated in FIG. 1. In initial experiments to test whether lipoxin caused stress, lipoxin A4 and lipoxin A4 epimer 15 were added to RPE cells in which oxidative stress had not been induced with TNF-α or H2O2. The apoptotic cell death was scored by Hoechst staining, as described in Mukherjee et al., 2007. The results were expressed as percentage inhibition of apoptosis by counting the Hoechst positive cells, and are shown in FIG. 1.

ARPE-19 cells [2] = test: Apoptosis in RPE cells in which oxidative stress had not been induced (test whether lipoxin caused stress), Hoechst staining; format: cell-based
Experimental: as §1
ARPE-19 cells growing in DMEM-F-12 medium for 72 h were serum starved for 8 h before induction of oxidative stress, as described in P. K. Mukherjee et al., “Photoreceptor outer segment phagocytosis attenuates oxidative stress-induced apoptosis with concomitant neuroportectin D1 synthesis,” PNAS, vol. 104, pp. 13158-13163 (2007). Oxidative stress was introduced by TNF-α (10 ng/ml) and H2O2 (600 uM) for 14 h and challenged with different concentrations of either lipoxin-A4 or lipoxin A4 epimer 15 (10 nM, 50 nM, and 100 nM; Calbiochem, Madison, Wis.), as indicated in FIG. 1. […] The apoptotic cell death was scored by Hoechst staining, as described in Mukherjee et al., 2007. The results were expressed as percentage inhibition of apoptosis by counting the Hoechst positive cells, and are shown in FIG. 1.

COX-2 promoter construct = test: Interleukin-1β induced COX-2 promoter construct (huCOX-2-LUC) luciferase assay in RPE cells; format: cell-based, human; settings: IL-1β 10 ng/ml, 14 h
Experimental: COX-2 is a proinflammatory protein that participates in RPE cell injury. ARPE-19 cells were grown over night in six well plates and then transfected with huCOX-2-LUC (−830) promoter construct (5 ug) for 24 h. Transfected cells were serum starved for 8 h before the addition of IL-1β (10 ng/ml). IL-1β treated cells were challenged with 100 nM, 500 nM, and 1000 nM concentrations of lipoxin A4 and lipoxin A4 epimer 15 for 14 h. Cells were then harvested, and luciferase assays were performed using luciferin as substrate.

ARPE-19 cells [3] = test: Lipoxins and NPD1 combined effect on apoptosis induced by oxidative stress in RPE cells; format: cell-based, human; settings: NPD1 30 nM with lipoxin A4 or its analog 100 nM, 14 h; FIG. 2
Experimental: The growth of RPE cells, serum starvation, and induction of apoptosis were the same as described above in Example 1 and in Mukherjee et al., 2007. To test for a synergistic effect between lipoxin A4 and […] (NPD1), the oxidative-stressed RPE cells were treated with NPD1 (30 nM) and with lipoxin A4 or its analog (100 nM) for 14 h as indicated in FIG. 2. The percent apoptosis is expressed as described above in Example 1 as a percentage of the Hoechst positive cells.

[4] = 100, 500, 1000 nM, luciferase, FIG. 3

SMILES	inhibition of apoptosis in RPE cells under oxidative stress (ARPE-19 cells [1]; 100 nM)	inhibition of apoptosis in RPE cells under oxidative stress (ARPE-19 cells [1]; 10, 50, 100 nM)	induction of apoptosis in RPE cells (ARPE-19 cells [2]; no oxidative stress (no TNF-α or H2O2), Hoechst positive cells, FIG. 1)	inhibition of IL-1β mediated induction of COX-2 promoter construct (COX-2 promoter construct; 100 nM (lowest inhibition)) [%]	inhibition of IL-1β mediated induction of COX-2 promoter construct (COX-2 promoter construct; 1000 nM)	inhibition of IL-1β mediated induction of COX-2 promoter construct (COX-2 promoter construct; [4])	effect of lipoxin combined with NPD1 on oxidative stress-induced apoptosis (ARPE-19 cells [3])	induction of apoptosis in RPE cells (ARPE-19 cells [2])
CCCCC[C@@H](O)/C=C/C=C\C=C\C=C\[C@@H](O)[C@@H](O)CCCC(=O)O (single isomer, unassigned; epimer 15) [lipoxin A4 epimer 15, 15-epi-lipoxin A4]	highest inhibition	able to inhibit apoptosis in RPE cells in a concentration-dependent manner	did not induce apoptosis	35	highest	inhibit IL-1β mediated induction of COX-2 promoter construct in RPE cells in a concentration-dependent manner		
CC/C=C\C[C@H](O)\C=C/C=C/C=C/[C@H](O)C/C=C\C/C=C\CCC(=O)O [NPD1, neuroprotectin D1, reference compound]							additive	
CCCCC[C@H](O)/C=C/C=C\C=C\C=C\[C@@H](O)[C@@H](O)CCCC(=O)O [lipoxin A4]	highest inhibition	able to inhibit apoptosis in RPE cells in a concentration-dependent manner		35	highest	inhibit IL-1β mediated induction of COX-2 promoter construct in RPE cells in a concentration-dependent manner	additive	did not induce apoptosis

Reference: patent US20100324138A1, “Lipoxin A4 Protection for Retinal Cells” (priority 2007, published 2010)
